Holding throughout (test): growth of human tumour cells (NCI), 48 h
In assay [1] the test system is OVCAR-4 ovarian.
The subject of assay [2] is CAKI-1 renal.
The subject of assay [3] is MALME-3M melanoma.
The test system of assay [4] is HL-60(TB) leukemia.
Assay [5] concerns RXF 393 renal.
In assay [6] the test system is HCT-116 colon.
Assay [7] concerns MCF7 breast.
Assay [8] concerns 786-0 renal.
Assay [9] relates to NCI/ADR-RES ovarian.
Assay [10] deals with SN12C renal.

Where “and” joins values, the source holds several entries; their conditions need not be identical. Equal values may be shown once.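 Step 1: Grow cells in 96-well plates. Step 2: Expose to compound for 48 hours at 5 concentrations. Step 3: Interpolate endpoints linearly; if unreached, use highest concentration. At the GI50, growth is halved. The concentration for full growth arrest is given as TGI.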

Turning to `O=C1Nc2ccc3c(c2/C1=C\c1cc2c(cc1Br)OCO2)OCO3`, the GI50 in assay [1] is 1.7 µM; in assay [2], 0.331 µM; in [3], 0.423 µM; in assay [4] it was 0.271 µM; in assay [5] it was 0.901 µM; in assay [6], 0.376 µM. The GI50 is 0.351 µM in assay [7], 1.24 µM in assay [8], 0.364 µM in assay [9] and 0.781 µM in assay [10]. The TGI was 5.14 µM in [1]; 2.8 µM in assay [2]; 4.16 µM in assay [3]; 2.35 µM in [4]; 3.78 µM in assay [5]; 1.72 µM in assay [6]. In addition, the TGI in assay [7] was found to be 2.87 µM; in assay [8], 3.43 µM; in assay [9], 4.97 µM; in assay [10] it was 6.47 µM.

As for `COc1cc2c(c(OC)c1OC)C(=O)NCCC2`, the TGI in assay [1] was greater than 100 µM; in assay [2], greater than 100 µM; in assay [3] it was greater than 100 µM; in [4], greater than 63.1 µM; in assay [5] it was greater than 100 µM; in [6], greater than 100 µM. Further, the TGI in assay [7], in [8], in [9] and in assay [10] was greater than 100 µM in each case.

With `CCOC(=O)c1c(CN2CCN(C)CC2)nc2ccc(Cl)cc2c1-c1ccccc1`, the GI50 in assay [1] was 4.98 µM; in assay [2], 2.95 µM; in assay [3], 1.75 µM; in assay [4], 2.2 µM; in [5], 5.33 µM; in [6] it was 6.51 µM. The GI50 in assay [7] was 4.15 µM; in assay [8] it was 7.05 µM; in [9], 5.35 µM; in assay [10], 11.6 µM. The TGI in assay [1] is 17.4 µM; in [2], 13.6 µM; in assay [3], 4.09 µM; in assay [4], 6.22 µM; in assay [5], 15.4 µM; in [6] it was 19.1 µM. Also, the TGI stood at 16.6 µM in assay [7], 18.8 µM in [8], 14.5 µM in assay [9] and 25.9 µM in assay [10].

As for `COc1ccc(-c2c(N)noc2-c2cc(OC)c3c(c2)OCCO3)cc1`, the GI50 in assay [1] is 0.0847 µM; in assay [2], less than 0.01 µM; in [3] it was 23.6 µM; in [4], 0.0102 µM; in assay [5], less than 0.01 µM; in assay [6] it was less than 0.01 µM. The GI50 in assay [7] was less than 0.01 µM; in assay [8], less than 0.012 µM; in assay [9], less than 0.01 µM; in assay [10], 0.0438 µM. The TGI in assay [1] was greater than 100 µM; in assay [2], 34.1 µM; in assay [3] it was greater than 100 µM; in assay [4], 0.0434 µM; in [5], 0.0467 µM; in assay [6], 6.37 µM. Also, the TGI was greater than 100 µM in assay [7], 0.0226 µM in assay [9] and greater than 100 µM in assay [10].

In the case of `C[C@@H]1CCc2ncc(F)cc2[C@H]2CCCN2c2ccn3ncc(c3n2)C(=O)N1`, the GI50 in assay [1] was 62.4 µM; in [2], 23 µM; in [3], greater than 100 µM; in assay [4] it was greater than 100 µM; in assay [5], 16.7 µM; in assay [6], greater than 100 µM. Besides, the GI50 in assay [7] is 53.1 µM; in [8], 63 µM; in assay [9], greater than 100 µM; in [10], 44.1 µM. Moreover, the TGI in assay [1] is greater than 100 µM; in assay [2] it was greater than 100 µM; in [3], greater than 100 µM; in assay [4], greater than 100 µM; in [5] it was 61 µM; in assay [6], greater than 100 µM. For the same compound, the TGI in assay [7], in assay [8], in assay [9] and in assay [10] was greater than 100 µM throughout.

On to `NC(=O)/C(=C/n1cnc(-c2cc(C(F)(F)F)cc(C(F)(F)F)c2)n1)c1cncnc1`, for which the GI50 in assay [1] is 0.0833 µM; in [2] it was 0.275 µM; in assay [3], 0.256 µM; in [4], 0.0562 µM; in assay [5], 0.0706 µM; in [6], 0.162 µM. The GI50 in assay [7] is 0.112 µM; in assay [8], 0.412 µM; in assay [9] it was 0.517 µM; in assay [10], 0.814 µM. Also, the TGI in [1] amounted to 16.1 µM; in assay [2], 14.1 µM; in assay [3], 9.03 µM; in assay [4], 2.96 µM; in assay [5], 0.573 µM; in assay [6], 4.95 µM. The TGI in [7] came out at 11.2 µM; in [8], 11.4 µM; in [9], 23.9 µM; in assay [10], 12.7 µM.

With `CC(=O)OCC1OC(n2c3c(cc(C#N)c2=S)CCCC3)C(OC(C)=O)C(OC(C)=O)C1OC(C)=O` (stereo not given), the TGI in [1] is greater than 100 µM; in assay [2] it was greater than 100 µM; in assay [3], greater than 100 µM; in assay [4], greater than 100 µM; in assay [5], > 100 µM and 63.7 µM; in [6], greater than 100 µM. Further, the TGI in assay [7], in assay [8], in assay [9] and in assay [10] was greater than 100 µM in each case. The GI50 in assay [2] is > 100 µM and 42.1 µM; in [4] it was 48.9 µM and > 100 µM; in assay [5], > 100 µM and 20.4 µM; in assay [6], greater than 93.3 µM; in assay [7] it was 48.4 µM and > 100 µM; in assay [8], > 100 µM and 26.9 µM.

As to `COc1ccc(C2=Nn3c(nnc3-n3nc(C)cc3C)SC2)cc1`, the GI50 in [1] was 4.53 µM; in [2] it was 0.0443 µM; in assay [3] it was 0.0407 µM; in assay [4], 0.0358 µM; in assay [5], 0.0599 µM; in [6] it was 0.0554 µM. Also, the GI50 in assay [7] was 0.0642 µM; in assay [8], 0.146 µM; in [9], 0.0536 µM; in assay [10], 0.298 µM. The TGI in [1] is greater than 100 µM; in assay [2], greater than 43.4 µM; in [3], 70.5 µM; in [4], 0.482 µM; in [5], greater than 100 µM; in assay [6], greater than 100 µM. Further, the TGI in assay [7], in assay [8], in [9] and in assay [10] was greater than 100 µM each time.

The record behind these values is PubChem BioAssay (NCI).
